Test results published in publication PMC9090415, “Discovery of small molecule inhibitors of Plasmodium falciparum apicoplast DNA polymerase” (Journal of Enzyme Inhibition and Medicinal Chemistry, 2022).

Molecular target: P. falciparum apicoplast DNA polymerase (Pf-apPOL) (Plasmodium falciparum, UniProt Q8ILY1)
Assay: Fluorescence-based high-throughput DNA polymerase assay (molecular beacon), primary screen and dose-response
Format: biochemical
Settings: for DNA Pol: 90 min, 10 µM; for % inhibition apPOL 180' 2.5 / % inhibition apPOL 180' 5 / % inhibition apPOL 180' 10 / % inhibition apPOL 180' 20 / % inhibition apPOL 180' 40 / % inhibition apPOL 180' 80: read at 180'
Summary of the method: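 Single-point screening used 10 µM compound with 20 nM polymerase, 20 nM hairpin substrate and 6 µM dNTPs for 90 min at 25 °C. Confirmatory titrations (2.5–80 µM) followed fluorescence at three times, and IC50 was derived from a fit including a cooperativity term n.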

[1] = "DNA Pol" of the 186 hits list (screen value)

Chain of P. falciparum apicoplast DNA polymerase (Pf-apPOL) (Q8ILY1 entry or part of it): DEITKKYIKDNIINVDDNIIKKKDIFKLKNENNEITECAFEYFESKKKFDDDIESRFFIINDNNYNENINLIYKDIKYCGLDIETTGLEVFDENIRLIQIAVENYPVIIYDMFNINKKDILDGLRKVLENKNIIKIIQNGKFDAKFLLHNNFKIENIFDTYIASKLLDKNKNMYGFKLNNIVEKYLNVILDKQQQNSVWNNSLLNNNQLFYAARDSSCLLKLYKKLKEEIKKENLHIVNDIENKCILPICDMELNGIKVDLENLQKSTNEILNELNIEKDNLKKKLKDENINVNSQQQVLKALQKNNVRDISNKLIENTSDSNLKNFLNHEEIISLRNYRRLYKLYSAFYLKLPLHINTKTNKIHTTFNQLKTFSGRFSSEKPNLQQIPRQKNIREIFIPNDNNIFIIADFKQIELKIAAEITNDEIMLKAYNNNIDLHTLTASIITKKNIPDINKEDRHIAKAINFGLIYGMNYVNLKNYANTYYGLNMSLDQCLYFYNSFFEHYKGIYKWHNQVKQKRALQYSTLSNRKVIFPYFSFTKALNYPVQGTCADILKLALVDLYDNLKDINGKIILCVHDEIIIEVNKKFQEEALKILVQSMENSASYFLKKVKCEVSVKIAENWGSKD

Cc1ccc(C(=O)/C=C/C=C/C=C/N(C)C)o1 [Molecule 96, CN(/C=C/C=C/C=C/C(=O)c1ccc(o1)C)C]
DNA Pol [1]: 48
% inhibition Apo pol 10' (DRC-1, concentration 2.5): 21.8998%
% inhibition Apo pol 10' (DRC-1, concentration 5): 52.2247%
% inhibition Apo pol 10' (DRC-1, concentration 10): 71.8634%
% inhibition Apo pol 10' (DRC-1, concentration 20): 65.9561%
% inhibition Apo pol 10' (DRC-1, concentration 40): 68.0612%
% inhibition Apo pol 10' (DRC-1, concentration 80): 57.2941%
% inhibition Apol 90' (DRC-1, concentration 2.5): 11.0382%
% inhibition Apol 90' (DRC-1, concentration 5): 37.6511%
% inhibition Apol 90' (DRC-1, concentration 10): 62.1527%
% inhibition Apol 90' (DRC-1, concentration 20): 58.9151%
% inhibition Apol 90' (DRC-1, concentration 40): 72.0375%
% inhibition Apol 90' (DRC-1, concentration 80): 69.2174%
% inhibition apPOL 180' (DRC-1, concentration 2.5): 1.481%
% inhibition apPOL 180' (DRC-1, concentration 5): 22.6897%
% inhibition apPOL 180' (DRC-1, concentration 10): 46.7432%
% inhibition apPOL 180' (DRC-1, concentration 20): 45.7545%
% inhibition apPOL 180' (DRC-1, concentration 40): 68.8362%
% inhibition apPOL 180' (DRC-1, concentration 80): 73.043%
% inhibition Apo pol 5' (DRC-2, concentration 2.5): 1.29%
% inhibition Apo pol 5' (DRC-2, concentration 5): 13%
% inhibition Apo pol 5' (DRC-2, concentration 10): 21%
% inhibition Apo pol 5' (DRC-2, concentration 20): 2.29%
% inhibition Apo pol 5' (DRC-2, concentration 40): -21%
% inhibition Apo pol 5' (DRC-2, concentration 80): -45%
% inhibition Apol 40' (DRC-2, concentration 2.5): 3.43%
% inhibition Apol 40' (DRC-2, concentration 5): 26%
% inhibition Apol 40' (DRC-2, concentration 10): 44%
% inhibition Apol 40' (DRC-2, concentration 20): 42%
% inhibition Apol 40' (DRC-2, concentration 40): 32%
% inhibition Apol 40' (DRC-2, concentration 80): 20%
% inhibition ApPOL 90' (DRC-2, concentration 2.5): 1%
% inhibition ApPOL 90' (DRC-2, concentration 5): 23%
% inhibition ApPOL 90' (DRC-2, concentration 10): 44%
% inhibition ApPOL 90' (DRC-2, concentration 20): 47%
% inhibition ApPOL 90' (DRC-2, concentration 40): 44%
% inhibition ApPOL 90' (DRC-2, concentration 80): 38%
% inhibition apPOL 180' (DRC-2, concentration 2.5): -4.64%
% inhibition apPOL 180' (DRC-2, concentration 5): 13%
% inhibition apPOL 180' (DRC-2, concentration 10): 36%
% inhibition apPOL 180' (DRC-2, concentration 20): 47%
% inhibition apPOL 180' (DRC-2, concentration 40): 51%
% inhibition apPOL 180' (DRC-2, concentration 80): 53%
DNA Pol (primary screen value, DNA Pol): 48

Cc1ccc(C)n1-c1ccc(C(=O)NNC(=O)c2ccc3nccnc3c2)cc1 [Molecule 53, O=C(c1ccc(cc1)n1c(C)ccc1C)NNC(=O)c1ccc2c(c1)nccn2]
DNA Pol [1]: 84
% inhibition Apo pol 10' (DRC-1, concentration 2.5): 0.1394%
% inhibition Apo pol 10' (DRC-1, concentration 5): 8.124%
% inhibition Apo pol 10' (DRC-1, concentration 10): 19.7971%
% inhibition Apo pol 10' (DRC-1, concentration 20): 46.3145%
% inhibition Apo pol 10' (DRC-1, concentration 40): 80.1476%
% inhibition Apo pol 10' (DRC-1, concentration 80): 83.7947%
% inhibition Apol 90' (DRC-1, concentration 2.5): -3.841%
% inhibition Apol 90' (DRC-1, concentration 5): -1.933%
% inhibition Apol 90' (DRC-1, concentration 10): 7.019%
% inhibition Apol 90' (DRC-1, concentration 20): 31.5983%
% inhibition Apol 90' (DRC-1, concentration 40): 69.8424%
% inhibition Apol 90' (DRC-1, concentration 80): 79.5478%
% inhibition apPOL 180' (DRC-1, concentration 2.5): -5.424%
% inhibition apPOL 180' (DRC-1, concentration 5): -7.03%
% inhibition apPOL 180' (DRC-1, concentration 10): 0.2997%
% inhibition apPOL 180' (DRC-1, concentration 20): 17.1559%
% inhibition apPOL 180' (DRC-1, concentration 40): 57.2023%
% inhibition apPOL 180' (DRC-1, concentration 80): 72.0846%
% inhibition Apo pol 5' (DRC-2, concentration 2.5): 0%
% inhibition Apo pol 5' (DRC-2, concentration 5): 1.67%
% inhibition Apo pol 5' (DRC-2, concentration 10): 25%
% inhibition Apo pol 5' (DRC-2, concentration 20): 46%
% inhibition Apo pol 5' (DRC-2, concentration 40): 55%
% inhibition Apo pol 5' (DRC-2, concentration 80): 57%
% inhibition Apol 40' (DRC-2, concentration 2.5): 3.18%
% inhibition Apol 40' (DRC-2, concentration 5): 2%
% inhibition Apol 40' (DRC-2, concentration 10): 23%
% inhibition Apol 40' (DRC-2, concentration 20): 50%
% inhibition Apol 40' (DRC-2, concentration 40): 64%
% inhibition Apol 40' (DRC-2, concentration 80): 72%
% inhibition ApPOL 90' (DRC-2, concentration 2.5): 0.241%
% inhibition ApPOL 90' (DRC-2, concentration 5): 1.15%
% inhibition ApPOL 90' (DRC-2, concentration 10): 18%
% inhibition ApPOL 90' (DRC-2, concentration 20): 47%
% inhibition ApPOL 90' (DRC-2, concentration 40): 64%
% inhibition ApPOL 90' (DRC-2, concentration 80): 74%
% inhibition apPOL 180' (DRC-2, concentration 2.5): -1.53%
% inhibition apPOL 180' (DRC-2, concentration 5): -2.77%
% inhibition apPOL 180' (DRC-2, concentration 10): 10%
% inhibition apPOL 180' (DRC-2, concentration 20): 37%
% inhibition apPOL 180' (DRC-2, concentration 40): 56%
% inhibition apPOL 180' (DRC-2, concentration 80): 73%
DNA Pol (primary screen value, DNA Pol): 84

N#Cc1c(O)nc(N2CCCCC2)nc1-c1ccc2c(c1)OCO2 [KU0083146]
DNA Pol (186 hits, DNA Pol (screen value), unit not given): 49
DNA Pol ('DNA Pol' (screen value), unit not given): 49
% inhibition Apo pol 10' 2.5 (DRC-1, read at 10', concentration 2.5): 13.1271%
% inhibition Apo pol 10' 5 (DRC-1, read at 10', concentration 5): 26.6749%
% inhibition Apo pol 10' 10 (DRC-1, read at 10', concentration 10): 53.7038%
% inhibition Apo pol 10' 20 (DRC-1, read at 10', concentration 20): 55.5357%
% inhibition Apo pol 10' 40 (DRC-1, read at 10', concentration 40): 66.277%
% inhibition Apo pol 10' 80 (DRC-1, read at 10', concentration 80): 78.8965%
% inhibition Apol 90' 2.5 (DRC-1, read at 90', concentration 2.5): 5.9065%
% inhibition Apol 90' 5 (DRC-1, read at 90', concentration 5): 16.8272%
% inhibition Apol 90' 10 (DRC-1, read at 90', concentration 10): 42.1383%
% inhibition Apol 90' 20 (DRC-1, read at 90', concentration 20): 45.0693%
% inhibition Apol 90' 40 (DRC-1, read at 90', concentration 40): 57.8585%
% inhibition Apol 90' 80 (DRC-1, read at 90', concentration 80): 71.163%
% inhibition apPOL 180' 2.5 (DRC-1, concentration 2.5): -1.148%
% inhibition apPOL 180' 5 (DRC-1, concentration 5): 6.188%
% inhibition apPOL 180' 10 (DRC-1, concentration 10): 30.2008%
% inhibition apPOL 180' 20 (DRC-1, concentration 20): 34.0367%
% inhibition apPOL 180' 40 (DRC-1, concentration 40): 46.9072%
% inhibition apPOL 180' 80 (DRC-1, concentration 80): 62.3261%
% inhibition Apo pol 5' (DRC-2, concentration 2.5): 13%
% inhibition Apo pol 5' (DRC-2, concentration 10): 33%
% inhibition Apo pol 5' (DRC-2, concentration 40): 53%
% inhibition Apol 40' (DRC-2, concentration 2.5): 13%
% inhibition Apol 40' (DRC-2, concentration 10): 33%
% inhibition apPOL 180' (DRC-2, concentration 40): 53%
% inhibition Apo pol 5' 2.5 (DRC-2, read at 5', concentration 2.5): 13%
% inhibition Apo pol 5' 5 (DRC-2, read at 5', concentration 5): 27%
% inhibition Apo pol 5' 10 (DRC-2, read at 5', concentration 10): 33%
% inhibition Apo pol 5' 20 (DRC-2, read at 5', concentration 20): 44%
% inhibition Apo pol 5' 40 (DRC-2, read at 5', concentration 40): 53%
% inhibition Apo pol 5' 80 (DRC-2, read at 5', concentration 80): 57%
% inhibition Apol 40' 2.5 (DRC-2, read at 40', concentration 2.5): 13%
% inhibition Apol 40' 5 (DRC-2, read at 40', concentration 5): 28%
% inhibition Apol 40' 10 (DRC-2, read at 40', concentration 10): 33%
% inhibition Apol 40' 20 (DRC-2, read at 40', concentration 20): 49%
% inhibition Apol 40' 40 (DRC-2, read at 40', concentration 40): 60%
% inhibition Apol 40' 80 (DRC-2, read at 40', concentration 80): 65%
% inhibition ApPOL 90' 2.5 (DRC-2, read at 90', concentration 2.5): 11%
% inhibition ApPOL 90' 5 (DRC-2, read at 90', concentration 5): 26%
% inhibition ApPOL 90' 10 (DRC-2, read at 90', concentration 10): 31%
% inhibition ApPOL 90' 20 (DRC-2, read at 90', concentration 20): 47%
% inhibition ApPOL 90' 40 (DRC-2, read at 90', concentration 40): 59%
% inhibition ApPOL 90' 80 (DRC-2, read at 90', concentration 80): 66%
% inhibition apPOL 180' 2.5 (DRC-2, concentration 2.5): 5.4%
% inhibition apPOL 180' 5 (DRC-2, concentration 5): 17%
% inhibition apPOL 180' 10 (DRC-2, concentration 10): 23%
% inhibition apPOL 180' 20 (DRC-2, concentration 20): 40%
% inhibition apPOL 180' 40 (DRC-2, concentration 40): 53%
% inhibition apPOL 180' 80 (DRC-2, concentration 80): 61%
